Test results published in the NIST ThermoML archive (doi:10.1016/j.jct.2005.03.002).

Details: 101.33 kPa, Liquid

CCOS(=O)(=O)[O-].CCn1cc[n+](C)c1 [1-ethyl-3-methylimidazolium ethyl sulfate]
Details	mass density [kg/m3]
278.2 K	1243
288.2 K	1236.2
298.2 K	1229.6
308.2 K	1223
318.2 K	1216.2
328.2 K	1209.9
338.2 K	1203.7
